Assay results published in patent US10028956B2, “Methods of treating various cancers using an AXL/cMET inhibitor in combination with other agents” (Ignyta, Inc., priority 2013, dated 2018).
Marks after values point to notes of the source that are not given here.

What was measured:
Assay type in all cases: in vivo, mice
[1] = system: CTG-0170 erlotinib-insensitive primary NSCLC human TumorGraft; test: NSCLC TumorGraft model CTG-0170; settings: CTG-0170, 10 days, 10 mg/kg iv/q4dx3
Procedure: (§1) Methods (for the experiments shown in FIGS. 10 and 11) • Female immunocompromised nu/nu mice (Harlan) between 6-9 weeks of age were housed on irradiated papertwist-enriched ⅛″ corncob bedding (Sheperd) in individual HEPA ventilated cages (Innocage® IVC, Innovive USA) on a 12-hour light-dark cycle at 68-74° F. (20-23° C.) and 30-70% humidity. Animals were fed water ad libitum (reverse osmosis, 2 ppm Cl2) and an irradiated Test rodent diet (Teklad 2919) consisting of 19% protein, 9% fat, and 4% fiber. • Tumor Models: Champions TumorGraft models of NSCLC are owned by Champions Oncology. In this study, animals were implanted unilaterally on the right flank with tumor fragments harvested from host animals. […] Erlotinib (manufacturer: OSI Pharmaceuticals; National Drug Code: 50242-062-01; Lot #: US0002) was formulated using 100% PEG-400 as the vehicle according to manufacturer's specifications.
(§2) Efficacy measurements: Beginning Day 0, tumor dimensions were measured twice weekly by digital caliper (Fowler Ultra-Cal IV) and data including individual and mean estimated tumor volumes (Mean TV±SEM) were recorded for each group; tumor volume was calculated using the formula TV=width^2×length×0.52. At study completion, percent tumor growth inhibition (% TGI) values were calculated and reported for each treatment group (T) versus control (C) using initial (i) and final (f) tumor measurements by the formula: % TGI=1−Tf−Ti/Cf−C; single agent or combination therapies resulting in a TGI>50 at study completion are considered active in the tested model at the evaluated treatment regimen according to NCI guidelines. Individual mice reporting a tumor volume ≤50% of the Day 0 measurement for two consecutive measurements over a seven day period were considered partial responders (PR). If the PR persisted until study completion, percent tumor regression (% TR) was determined using the formula: % TR=1−Tf/Ti×100; a mean value was calculated if multiple PR mice occurred in one group. Individual mice lacking palpable tumors (<4×4 mm^2 for two consecutive measurements over a seven day period) were classified as complete responders (CR); a CR that persisted until study completion was considered a tumor-free survivor (TFS). TFS animals are excluded from efficacy calculations. Statistical differences in tumor volume were determined using a two-tailed One-Way Analysis of Variance (ANOVA) followed by the Dunett's multiple comparisons test comparing treated groups with control and combinations with standard agent alone when possible. All data collected in this study was managed electronically and stored on a redundant server system.

[2] = system: CTG-0192 erlotinib-sensitive NSCLC TumorGraft; test: NSCLC TumorGraft model CTG-0192
Procedure: as §1, §2

[3] = system: CTG-0157 primary NSCLC human TumorGraft; test: NSCLC TumorGraft model CTG-0157; settings: CTG-0157, 14 days, 10 mg/kg iv/q4dx3
Procedure: as §1
as §2, with “Individual mice reporting a tumor volume ≤50% of the Day 0 measurement for two consecutive measurements over a seven day period were considered partial responders (PR).” left out, “Individual mice lacking palpable tumors (<4×4 mm^2 for two consecutive measurements over a seven day period) were classified as complete responders (CR); a CR that persisted until study completion was considered a tumor-free survivor (TFS). TFS animals are excluded from efficacy calculations.” left out, “All data collected in this study was managed electronically and stored on a redundant server system.” left out

[4] = system: CTG-0159 primary NSCLC human TumorGraft; test: NSCLC TumorGraft model CTG-0159; settings: CTG-0159, 14 days, 10 mg/kg iv/q4dx3
Procedure: as §1
as §2, with “Individual mice reporting a tumor volume ≤50% of the Day 0 measurement for two consecutive measurements over a seven day period were considered partial responders (PR).” left out, “Individual mice lacking palpable tumors (<4×4 mm^2 for two consecutive measurements over a seven day period) were classified as complete responders (CR); a CR that persisted until study completion was considered a tumor-free survivor (TFS). TFS animals are excluded from efficacy calculations.” left out, “All data collected in this study was managed electronically and stored on a redundant server system.” left out

[5] = system: CTG-0165 erlotinib-insensitive primary NSCLC human TumorGraft; test: NSCLC TumorGraft model CTG-0165; settings: CTG-0165, 37 days, 10 mg/kg iv/q4dx3
Procedure: as §1, §2

Row | SMILES | % Tumor Growth Inhibition [1] | % Tumor Growth Inhibition ([2]; CTG-0192, 32 days, 10 mg/kg iv/q4dx3) | % Tumor Growth Inhibition [3] | % Tumor Growth Inhibition [4] | % Tumor Growth Inhibition [5] | day of acquired resistance ([2]; CTG-0192, 35 mg/kg, po, qd×34) | tumor regrowth after discontinuation of dosing (day 34) ([2]; CTG-0192, 35 mg/kg, po, qd×34) | tumor response during dosing ([2]; CTG-0192, 35 mg/kg, po, qd×34)
1 | CC(=O)O[C@H]1C(=O)[C@@]2(C)[C@H]([C@H](OC(=O)c3ccccc3)[C@]3(O)C[C@H](OC(=O)[C@H](O)[C@@H](NC(=O)c4ccccc4)c4ccccc4)C(C)=C1C3(C)C)[C@]1(OC(C)=O)CO[C@@H]1C[C@@H]2O [Paclitaxel, reference compound] | 77%* | 105%* | 41% | 25%* | 56%* | – | – | –
2 | C#Cc1cccc(Nc2ncnc3cc(OCCOC)c(OCCOC)cc23)c1 [erlotinib, reference compound] | – | – | – | – | – | ~29 days | rate of tumor regrowth was similar to control/vehicle | initial sensitivity followed by acquired erlotinib-resistance
